Structures are written as SMILES.

Consider 17 molecules from patent EP1345943B1, “INHIBITORS OF PAPILLOMA VIRUS” (BOEHRINGER INGELHEIM (CANADA) LTD., priority 2000, dated 2002).

Sequence of E1-E2-DNA complex (P04015 whole entry, one chain of several): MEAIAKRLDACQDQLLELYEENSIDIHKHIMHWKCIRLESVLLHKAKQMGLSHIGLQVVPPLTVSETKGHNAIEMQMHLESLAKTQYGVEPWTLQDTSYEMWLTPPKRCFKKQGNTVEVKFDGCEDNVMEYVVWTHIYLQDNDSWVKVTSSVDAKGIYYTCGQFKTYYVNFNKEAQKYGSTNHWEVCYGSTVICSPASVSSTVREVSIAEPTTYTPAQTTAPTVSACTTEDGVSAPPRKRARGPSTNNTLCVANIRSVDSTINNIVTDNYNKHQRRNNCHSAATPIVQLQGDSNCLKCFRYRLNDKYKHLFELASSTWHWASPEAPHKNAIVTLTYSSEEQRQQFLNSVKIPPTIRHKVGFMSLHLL

The test addresses E1-E2-DNA complex (Human papillomavirus 11, UniProt P04015). The test is described as follows: E2-dependent E1 DNA binding assay (E1-E2 DNA assay). The conditions noted are these: E1-E2 DNA assay of Example 11, HPV-11. An outline of the steps:
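SPA-format binding of E1 (about 100-200 ng purified) and E2 (8 ng) to a 0.4 ng [33P]-labelled 400 bp HPV-11 origin probe, in 20 mM Tris pH 7.6, 100 mM NaCl, 1 mM DTT, 1 mM EDTA, for 1 h at room temperature. Complex captured 1 h with anti-E1 C-terminal antiserum on protein A-SPA beads and counted by scintillation; IC50 derived.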
The molecule `O=C(NC1Cc2ccccc2C1)C1C(c2ccc(Cl)c(Cl)c2)OC2(C(=O)c3ccccc3C2=O)C1C(=O)O` (centres unmarked) [Compound 1098] gave an IC50 of 0.5 to 5 µM.

As to `O=C(Nc1ccccc1)C1C(c2ccc(Cl)cc2)OC2(C(=O)c3ccccc3C2=O)C1C(=O)O` (centres unmarked) [Compound 1011], the IC50 fell in the range of 5 to 50 µM.

With `Cc1ccc(NC(=O)C2C(c3ccc(Cl)c(Cl)c3)OC3(C(=O)c4ccccc4C3=O)C2C(=O)O)cc1` (centres unmarked) [Compound 1065], the IC50 was in the range of 0.5 to 5 µM.

Molecule `O=C(Nc1ccc(C(F)(F)F)cc1)C1C(c2ccc(Cl)cc2)OC2(C(=O)c3ccccc3C2=O)C1C(=O)O` (centres unmarked) [Compound 1014] had an IC50 of 5 to 50 µM.

For the molecule `O=C(Nc1cc2ccccc2cn1)C1C(c2ccc(Cl)c(Cl)c2)OC2(C(=O)c3ccccc3C2=O)C1C(=O)O` (centres unmarked) [Compound 1040], the IC50 lay within 0.5 to 5 µM.

Take `O=C(Nc1ccc(Br)c(Cl)c1)C1C(c2ccc(Br)c(Br)c2)OC2(C(=O)c3ccccc3C2=O)C1C(=O)O` (racemic) [Compound 1102]: the IC50 was 0.5 to 5 µM.

Take `O=C1C2C(c3ccc(Cl)cc3)OC3(C(=O)c4ccccc4C3=O)C2C(=O)N1c1ccc(F)cc1` (centres unmarked) [Compound 2004]: the IC50 fell in the range of 5 to 50 µM.

`CC(=O)c1ccc(NC(=O)C2C(c3ccc(Cl)c(Cl)c3)OC3(C(=O)c4ccc(Cl)cc4C3=O)C2C(=O)O)cc1` (centres unmarked) [Compound 1114] showed an IC50 of 0.5 to 5 µM.

As for `O=C(CNCc1ccc(N2C(=O)C3C(c4ccc(Cl)c(Cl)c4)OC4(C(=O)c5ccccc5C4=O)C3C2=O)cc1)NCCNc1cccc2c(S(=O)(=O)O)cccc12` (centres unmarked) [Compound 2022], the IC50 was in the range of 5 to 50 µM.

For `CCc1ccc(NC(=O)C2C(c3ccc(Cl)c(Cl)c3)OC3(C(=O)c4ccccc4C3=O)C2C(=O)O)cc1` (centres unmarked) [Compound 1055], the IC50 lay in the range of 0.5 to 5 µM.

Consider `O=C1C2C(c3ccc(Br)c(Br)c3)OC3(C(=O)c4ccccc4C3=O)C2C(=O)N1c1ccc(N2CCOCC2)cc1` (centres unmarked) [Compound 2023], for which the IC50 was below 0.5 µM.

The molecule `O=C(Nc1ccc2c(c1)CCC2)C1C(c2ccc(Cl)cc2)OC2(C(=O)c3ccccc3C2=O)C1C(=O)O` (centres unmarked) [Compound 1013] returned an IC50 of 5 to 50 µM.

Molecule `O=C(Nc1ccc(NC(=O)C2C(c3ccc(Cl)c(Cl)c3)OC3(C(=O)c4ccccc4C3=O)C2C(=O)O)cc1)c1ccccc1` (centres unmarked) [Compound 1057] came in with an IC50 of 0.5 to 5 µM.

For the molecule `CC(=O)c1ccc(N2C(=O)C3C(c4ccc(Cl)cc4)OC4(C(=O)c5ccccc5C4=O)C3C2=O)cc1` (centres unmarked) [Compound 2003], the IC50 lay within 5 to 50 µM.

In turn, `Cc1ccc2c(c1)C(=O)C1(OC(c3ccc(Br)c(Br)c3)C(C(=O)Nc3ccc(-c4csnn4)cc3)C1C(=O)O)C2=O` (single isomer, unassigned) [Compound A1011] displayed an IC50 below 0.5 µM.

`O=C(Nc1ccc2c(c1)OCO2)C1C(c2ccc(Br)c(Br)c2)OC2(C(=O)c3ccccc3C2=O)C1C(=O)O` (centres unmarked) [Compound 1084] came in with an IC50 below 0.5 µM.

`O=C1C2C(c3ccc(Cl)cc3)OC3(C(=O)c4ccccc4C3=O)C2C(=O)N1c1cccc(Cl)c1` (centres unmarked) [Compound 2009] showed an IC50 of 5 to 50 µM.
